Laboratory results: patent US11802133B2, “Heterocyclic compounds as monoacylglycerol lipase inhibitors” (Hoffmann-La Roche Inc., priority 2018, dated 2023)

Columns and labels:
[1] = biological target: MAGL (recombinant wild-type) (Homo sapiens (Human), UniProt Q99685); assay: 4-NPA assay: MAGL inhibitory activity by hydrolysis of 4-nitrophenylacetate (absorbance at 405 nm); assay type: biochemical; conditions: measured in 4-NPA assay (footnote [a]); 1 nM MAGL, 300 μM 4-nitrophenylacetate
Procedure: This assay is hereinafter abbreviated “4-NPA assay”.
The plate was shaked for 1 min at 2000 rpm (Variomag Teleshake) and then incubated for 15 min at RT. […] The final concentrations in the assay were 1 nM MAGL and 300 μM 4-Nitrophenylacetate. […] A second measurement was then done after incubation for 80 min at RT. From the two measurements, the slope was calculated by subtracting the first from the second measurement.

MAGL = MAGL (Homo sapiens (Human), UniProt Q99685); assay: 2-AG assay: MAGL inhibitory activity by hydrolysis of 2-arachidonoylglycerol to arachidonic acid (mass spectrometry); assay type: biochemical; conditions: measured in 2-AG assay (footnote [b]); 8 μM 2-arachidonoylglycerol
Sequence of MAGL (Q99685 whole entry, species assumed): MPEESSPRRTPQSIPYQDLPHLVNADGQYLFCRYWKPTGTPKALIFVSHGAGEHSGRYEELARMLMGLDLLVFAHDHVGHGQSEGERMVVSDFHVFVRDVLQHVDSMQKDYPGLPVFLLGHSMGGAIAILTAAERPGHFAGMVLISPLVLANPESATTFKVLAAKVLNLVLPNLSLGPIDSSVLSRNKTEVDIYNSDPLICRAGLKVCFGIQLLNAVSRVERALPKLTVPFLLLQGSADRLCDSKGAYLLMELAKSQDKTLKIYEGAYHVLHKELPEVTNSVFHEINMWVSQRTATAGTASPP
Procedure: Alternatively, compounds were profiled for MAGL inhibitory activity by determining the enzymatic activity by following the hydrolysis of the natural substrate 2-arachidonoylglycerol resulting in arachidonic acid, which can be followed by mass spectrometry. This assay is hereinafter abbreviated “2-AG assay”.
A C18 SPE cartridge (G9205A) was used in an acetonitrile/water liquid setup. […] The activity of the compounds was calculated based on the ratio of intensities [arachidonic acid/d8-arachidonic acid].

Sequence of MAGL (recombinant wild-type) (Q99685 whole entry, species assumed): as above

IC50 [1] [nM] | IC50 (MAGL) [nM] | Structure (SMILES)
146 |  | O=C1CO[C@H]2CCN(C(=O)N3CCC(OCc4ccc(Cl)cc4)C3)C[C@H]2N1 (stereo partly shown) [Example 97]
12 |  | O=C1CO[C@H]2CCN(C(=O)N3CC(OCc4cc(C(F)(F)F)c(F)cc4F)C3)C[C@H]2N1 [Example 112]
10 |  | Cc1cc(C(F)(F)F)ccc1CC1CCN(C(=O)N2CC[C@@H]3OCC(=O)N[C@@H]3C2)CC1 [Example 98]
4 |  | O=C1CO[C@H]2CCN(C(=O)N3CC(OCc4ccc(Cl)cc4C(F)(F)F)C3)C[C@H]2N1 [Example 116]
5 |  | O=C1CO[C@H]2CCN(C(=O)N3CC(OCc4cc(C(F)(F)F)ccc4F)C3)C[C@H]2N1 [Example 113]
223 |  | O=C1CO[C@H]2CCN(C(=O)N3CC(F)(COc4ccc(F)cc4Cl)C3)C[C@H]2N1 [Example 109]
5 |  | O=C1CO[C@H]2CCN(C(=O)N3CC(OCc4ccc(C(F)(F)F)c(F)c4)C3)C[C@H]2N1 [Example 114]
285 |  | CC1C(OCc2ccc(C(F)(F)F)cc2)CN1C(=O)N1CC[C@@H]2OCC(=O)N[C@@H]2C1 (stereo partly drawn) [Example 105, (4aR,8aS)-6-[2-Methyl-3-[[4-(trifluoromethyl)phenyl]methoxy]azetidine-1-carbonyl]-4,4a,5,7,8,8a-hexahydropyrido[4,3-b][1,4]oxazin-3-one]
2180 |  | O=C1CO[C@H]2CCN(C(=O)N3CC(OCc4ccc(C(F)(F)F)cc4F)(C(F)(F)F)C3)C[C@H]2N1 [Example 110]
11 |  | O=C1CO[C@H]2CCN(C(=O)N3CC(OCc4cc(F)cc(C(F)(F)F)c4)C3)C[C@H]2N1 [Example 101]
 | 14 | O=C1CO[C@H]2CCN(C(=O)N3CCC(Oc4cccc(C(F)(F)F)c4Cl)CC3)C[C@H]2N1 [Example 257]
 | 48 | O=C1CO[C@H]2CCN(C(=O)N3CC(Oc4cccc(Br)c4Cl)C3)C[C@H]2N1 [Example 258]
 | 3 | O=C1CO[C@H]2CCN(C(=O)N3CC(OCc4ccc(Cl)c(Cl)c4)C3)C[C@H]2N1 [Example 224]
 | 3 | O=C1CO[C@H]2CCN(C(=O)N3CCC(Oc4ccc(Cl)c(-c5ccc(Cl)cc5)c4F)CC3)C[C@H]2N1 [Example 212]
 | 18 | CC1CN(c2cc(OC3CN(C(=O)N4CC[C@@H]5OCC(=O)N[C@@H]5C4)C3)ccc2C(F)(F)F)C1 [Example 266, (+)-(4aR,8aS)-6-[3-[3-(3-Methylazetidin-l-yl)-4-(trifluoromethyl)phenoxy]azetidine-1-carbonyl]-4,4a,5,7,8,8a-hexahydropyrido[4,3-b][l,4]oxazin-3-one]

Further lines, the compound ahead of its results:

Structure (SMILES) | IC50 [1] [nM] | IC50 (MAGL) [nM]
O=C1CO[C@H]2CCN(C(=O)N3CCC(Cc4ccc(Cl)c(F)c4)CC3)C[C@H]2N1 [Example 33] | 4 | 
O=C1CO[C@H]2CCN(C(=O)N3CCC(Cc4ccc(C(F)(F)F)cn4)CC3)C[C@H]2N1 [Example 25] | 452 | 
O=C1CO[C@H]2CCN(C(=O)N3CCN(Cc4ccc(Cl)cc4)CC3)C[C@H]2N1 [Example 22] | 2100 | 
O=C1CO[C@H]2CCN(C(=O)N3CCC(Cc4ccc(C(F)(F)F)cc4N4CCCC4)CC3)C[C@H]2N1 [Example 53] | 6 | 
O=C1CO[C@H]2CCN(C(=O)N3CCC(COc4ccccc4)CC3)C[C@H]2N1 [Example 15] | 190 | 
O=C1CO[C@H]2CCN(C(=O)N3CCN(Cc4ccc(C(F)(F)F)cc4N4CCCC4)CC3)C[C@H]2N1 [Example 56] | 42 | 
O=C1CO[C@@H]2CCN(C(=O)N3CCC(Cc4ccc(C(F)(F)F)cc4)CC3)C[C@H]2N1 [Example 19] | 1500 | 
O=C1CO[C@H]2CCN(C(=O)N3CCC(Cc4ccc(OC(F)(F)F)cc4)CC3)C[C@H]2N1 [Example 31] | 49 | 
O=C1CO[C@H]2CCN(C(=O)N3CCC(COc4ccc(OC(F)(F)F)cc4Cl)CC3)C[C@H]2N1 [Example 46] | 5 | 
O=C1CO[C@@H]2CCN(C(=O)N3CCC(COc4ccc(F)cc4Cl)CC3)C[C@@H]2N1 [Example 23] | 856 | 
O=C1CO[C@H]2CCN(C(=O)N3CC(Cc4ccc(C(F)(F)F)cc4)C3)C[C@H]2N1 [Example 36] | 119 | 
O=C1CO[C@H]2CCN(C(=O)N3CCC(COc4ccc(C(F)(F)F)cc4F)CC3)C[C@H]2N1 [Example 52] | 58 | 
CC(C)(C)c1csc(CC2CCN(C(=O)N3CC[C@@H]4OCC(=O)N[C@@H]4C3)CC2)n1 (racemic) [Example 3, rac-(4aR,8aS)-6-[4-[(4-tert-Butylthiazol-2-yl)methyl]piperidine-1-carbonyl]-4,4a,5,7,8,8a-hexahydropyrido[4,3-b][1,4]oxazin-3-one] | 66 | 
O=C1CO[C@H]2CCN(C(=O)N3CCC(Cc4ccc(C(F)(F)F)cc4)CC3)C[C@@H]2N1 [Example 17] | 268 | 
CC1(COc2ccc(F)cc2Cl)CCN(C(=O)N2CC[C@H]3OCC(=O)N[C@H]3C2)CC1 [Example 48] | 288 | 
O=C1CO[C@H]2CCN(C(=O)N3CCC(Oc4ccc(C(F)(F)F)cc4)CC3)C[C@H]2N1 [Example 12, (+)- or (−)-(4aR,8aS)-6-(4-(4-(Trifluoromethyl)phenoxy)piperidine-1-carbonyl)hexahydro-2H-pyrido[4,3-b][1,4]oxazin-3(4H)-one] | 77 | 
O=C1CO[C@@H]2CCN(C(=O)N3CCC(COc4ccc(C(F)(F)F)nc4)CC3)C[C@@H]2N1 [Example 42, (4aS,8aR)-6-(4-(((6-(Trifluoromethyl)pyridin-3-yl)oxy)methyl)piperidine-1-carbonyl)hexahydro-2H-pyrido[4,3-b][1,4]oxazin-3(4H)-one] | 1200 | 
N#Cc1ccc(CC2CCN(C(=O)N3CC[C@@H]4OCC(=O)N[C@@H]4C3)CC2)cc1 [Example 34, (+)- or (−)-4-[[1-[(4aR,8aS)-3-Oxo-4,4a,5,7,8,8a-hexahydropyrido[4,3-b][1,4]oxazine-6-carbonyl]-4-piperidyl]methyl]benzonitrile] | 438 | 
O=C1CO[C@H]2CCN(C(=O)N3CCC(Cc4ccc(Cl)cc4)CC3)C[C@H]2N1 [Example 10] | 39 | 
O=C1CO[C@H]2CCN(C(=O)N3CCC(COc4ccc(Cl)cc4)C3)C[C@H]2N1 (stereo partly shown) [Example 96] | 293 | 
O=C1CO[C@@H]2CCN(C(=O)N3CCC(COc4ccc(F)cc4F)CC3)C[C@@H]2N1 [Example 49] | 363 | 
COc1ccc(OCC2CCN(C(=O)N3CC[C@@H]4OCC(=O)N[C@@H]4C3)CC2)c(F)c1 [Example 39, (4aR,8aS)-6-[4-[(2-Fluoro-4-methoxyphenoxy)methyl]piperidine-1-carbonyl]-4,4a,5,7,8,8a-hexahydropyrido[4,3-b][1,4]oxazin-3-one] | 116 | 
CC(C)(C)c1coc(CC2CCN(C(=O)N3CC[C@@H]4OCC(=O)N[C@@H]4C3)CC2)n1 [Example 2] | 46 | 
N#Cc1cc(F)ccc1OCC1CCN(C(=O)N2CC[C@@H]3OCC(=O)N[C@@H]3C2)CC1 [Example 55] | 79 | 
O=C1CO[C@@H]2CCN(C(=O)N3CCC(COc4ccc(OC(F)(F)F)cc4Cl)CC3)C[C@@H]2N1 [Example 45] | 850 | 
